Patent publication US20060111366A1, “Pharmaceutical use of substituted amides” (Novo Nordisk A/S, priority 2003, published 2006)

Molecular target: T1, h-11βHSD1 (Homo sapiens, UniProt P28845)
T1 construct: made in house
Assay: 11βHSD1 enzyme assay (scintillation proximity assay, conversion of 3H-cortisone to 3H-cortisol)
Assay type: biochemical
Details: extract of yeast transformed with h-11βHSD1; 120 nM 3H-cortisone, 4 mM β-NADPH, 60 min at 30° C.
Method: ^3H-cortisone and anti-rabbit Ig coated scintillation proximity assay (SPA) beads were purchased from Amersham Pharmacia Biotech, β-NADPH was from Sigma and rabbit anticortisol antibodies were from Fitzgerald. An extract of yeast transformed with h-11βHSD1 (Hult et al., FEBS Lett., 441, 25 (1998)) was used as the source of enzyme. The test compounds were dissolved in DMSO (10 mM). All dilutions were performed in a buffer containing 50 mM TRIS-HCl (Sigma Chemical Co), 4 mM EDTA (Sigma Chemical Co), 0.1% BSA (Sigma Chemical Co), 0.01% Tween-20 (Sigma Chemical Co) and 0.005% bacitracin (Novo Nordisk A/S), pH=7.4. Optiplate 96 wells plates were supplied by Packard. The amount of ^3H-cortisol bound to the SPA beads was measured on TopCount NXT, Packard.
h-11βHSD1, 120 nM ^3H-cortisone, 4 mM β-NADPH, antibody (1:200), serial dilutions of test compound and SPA particles (2 mg/well) were added to the wells. The reaction was initiated by mixing the different components and was allowed to proceed under shaking for 60 min at 30° C. […] Data was analysed using GraphPad Prism software.

T1 sequence (P28845 whole entry): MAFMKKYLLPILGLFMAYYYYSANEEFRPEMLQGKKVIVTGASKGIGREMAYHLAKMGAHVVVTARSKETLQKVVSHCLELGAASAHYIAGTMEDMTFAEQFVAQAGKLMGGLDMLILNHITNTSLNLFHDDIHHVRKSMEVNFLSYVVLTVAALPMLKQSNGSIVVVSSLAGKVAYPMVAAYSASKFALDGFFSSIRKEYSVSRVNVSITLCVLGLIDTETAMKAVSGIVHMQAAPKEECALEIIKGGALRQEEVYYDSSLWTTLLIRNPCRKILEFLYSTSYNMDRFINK

IC50 [nM] | SMILES
560 | CN(C(=O)CCCOc1ccc2c(c1)OCO2)C1CCCCC1 [(I) 1, 4-(Benzo[1,3]dioxol-5-yloxy)-N-cyclohexyl-N-methyl-butyramide]
120000 | CN1CCC(N(C)C(=O)CCCOc2ccccc2)CC1 [(I) 2, N-Methyl-N-(1-methyl-piperidin-4-yl)-4-Phenoxy-butyramide]
40 | CCCc1c(C(=O)N(C)C2CCCCC2)cnn1-c1ccc(Cl)cc1 [(III) 1, 1-(4-Chloro-phenyl)-5-propyl-1H-pyrazole-4-carboxylic acid cyclohexyl-methyl-amide]
45 | CN(C(=O)c1ccc2[nH]cnc2c1)C1CCCCC1 [(V) 1, 1H-Benzoimidazole-5-carboxylic acid cyclohexyl-methyl-amide]
6 | CC1Oc2c(C(=O)N(C)C3CCCCC3)cccc2C1C (stereo not drawn) [(VI) 1, 2,3-Dimethyl-2,3-dihydro-benzofuran-7-carboxylic acid cyclohexyl-methyl-amide]
118 | CN(C(=O)c1ccc2cc[nH]c2c1)C1CCCCC1 [(VII) 2, 1H-Indole-6-carboxylic acid cyclohexyl-methyl-amide]
